Test results as given in patent US9150530B2, “Esters of 4, 9-dihydroxy-naphtho [2, 3-b] furans for disease therapies” (Zhoushan Haizhongzhou Xinsheng Pharmaceuticals Co., Ltd., priority 2011, dated 2015).

Legend:
[1] = Metabolism in biological fluid (human whole blood, cancer cell lysate, liver microsomes, mouse oral uptake), HPLC; format: in vitro ADME; conditions: liver microsomes or mouse oral uptake system, 20 μM, 37° C.
Description: Second, a major metabolite found after incubation of compound I, III, IV, VI or XIII in biological fluid, such as human whole blood, or cancer cell lysate, or liver microsomes, or mouse oral uptake system, is compound XII (FIG. 3). Similarly, a major metabolite found after incubation of compound V, VII or XIV in biological fluid is 2-(1-hydroxy-n-propyl)-naphtho[2,3-b]furan-4,9-dione (data not shown). Reduction of the position 2 substituent carbonyl group is part of quinone redox reaction as evidenced by the β-lapachone effect on the formation of compound XII in the compound XIII incubation mixture of human whole blood (part D of FIG. 3). The possible reaction mechanism is proposed as shown in scheme 7, in which the two electron reduction could be NQ01 catalyzed reduction or two successive cytochrome b5 reductase or p450 reductase catalyzed reaction. As substrate of these enzymes, β-lapachone could compete for the two electron or single electron reaction and thus reduced formation of the metabolism product.
Crystalline or amorphous solid of compound was mixed with excipient and suspended in 0.5% carboxymethylcellulose (CMC) solution in a mortar. Then the mixture was orally administered into ICR mouse at the predetermined dosage. At the predetermined time point, blood was drawn from the mouse and stored in the vial containing heparin. The blood samples were centrifuged at 6,000 rpm for 10 min, and plasmas were separated. To each plasma sample, 9 times volume of acetonitrile/methyl trifluoromethanesulfonate (1000:1) or acetonitrile/concentrated HCl (1000:1) was added. The resulting mixtures were vortexed and incubated in dry ice for 30 minutes or in −20° C. freezer for 3 hours, then centrifuged, and supernatants were separated for HPLC analysis using gradient B.
The biological systems for in vitro metabolism study include: human whole blood stabilized with sodium citrate; cancer cell lysate (obtained using freeze-thaw method, 10 mg/ml in protein concentration for use); liver microsomes with NADPH generation system (prepared according to the protocol provided by iPhase Pharma, Beijing, China);
10 mM of a compound of formula I or its analog or compound XIII in DMSO (however, compound VI was in DMF) was added into the biological system to a final concentration of 20 μM. The mixtures were incubated at 37° C. for predetermined time. To each sample, then 9 times volume of acetonitrile was added. The resulting mixtures were vortexed and incubated in dry ice for 30 minutes or in −20° C. freezer for 3 hours, then centrifuged, and supernatants were separated for HPLC analysis using gradient B.

[2] = system: DLD1; test: Effect of NQ01 inhibitor (dicumarol) on biological activity, MTT, DLD1; format: cell-based; conditions: DLD1 (significant NQ01 enzymatic activity); dicumarol 40 μM; 48 hr
Description: (§1) Cell Viability Determination: Popular MTT method (Archives of Biochemistry and Biophysics, 1993, 303: 474-482) was used to screen the in vitro effects of the invented drugs. Briefly, 5000 to 10000 cells were inoculated per well in a 96-well plate. After overnight incubation, drug was added to the wells at final concentration of 10 μM, […], 2.5 μM, 1.25 μM, or 1 μM, 0.75 μM, 0.5 μM and 0.25 μM in complete culture medium. Each dose level covered 4 equivalent wells. After 48 hour incubation, one tenth volume of 5 mg/mL MTT (thiazolyl blue tetrazolium bromide, Sigma-Aldrich) stock solution was added, and incubation was continued for 2 hours. Then medium was removed and 100 μL of isopropanol solution comprising 86% isopropanol, 4% aqueous 1 N HCl and 10% aqueous SDS solution (10% in concentration) was added. The absorbance of each well at 570 nm wavelength was measured by a micro-plate reader after gentle shaking for 20 minutes. Drug concentrations of 50% cell viability (IC50) were calculated by LOGIT method.
(§2) Effect of NQ01 Inhibitor (Dicumarol) on the Biological Activities of 2-acetyl-4,9-diacetoxy-naphtho[2,3-b]furan and Compound XIII (Part B and C of FIG. 4):MTT assay was used for this experiment. Same procedure as described in “Cell Viability Determination” section. […] The viability of cells at each well was read out after 48 hr incubation in cell culture incubator.

[3] = system: Panc-1; test: Effect of NQ01 inhibitor (dicumarol) on biological activity, MTT, Panc-1; format: cell-based; conditions: Panc-1 (no significant NQ01 enzymatic activity); dicumarol 40 μM; 48 hr
Description: as §1, §2

[4] = system: DLD1; test: Effect of drug incubation time on biological activity, MTT, DLD1; format: cell-based; conditions: DLD1 (significant NQ01 activity)
Description: as §1
(§3) Effect of Drug Incubation Time on the Biological Activities of Compound XIII (FIG. 7): MTT assay was used for this experiment. Same procedure as described in “Cell Viability Determination” section. Briefly, cancer cells were inoculated on 96 well culture plates. […] The viability of cells at each well was read out using MTT method.

[5] = system: A549; test: Effect of drug incubation time on biological activity, MTT, A549; format: cell-based; conditions: A549 (significant NQ01 activity)
Description: as §1, §3

[6] = system: H1299; test: Effect of drug incubation time on biological activity, MTT, H1299; format: cell-based; conditions: H1299 (no NQ01 activity)
Description: as §1, §3

[7] = system: Panc 1; test: Effect of drug incubation time on biological activity, MTT, Panc 1; format: cell-based; conditions: Panc 1 (no NQ01 activity)
Description: as §1, §3

## CC(=O)c1cc2c(o1)C(=O)c1ccccc1C2=O [compound XIII, 2-acetyl-naphtho[2,3-b]furan-4,9-dione]
[1]
  Major metabolite found after incubation in biological fluid: compound XII
[2]
  Dicumarol effect on anticancer activity: dicumarol attenuates anticancer activities
[3]
  Dicumarol effect on anticancer activity: dicumarol showed little effect
[4]
  Cell growth inhibition, full time treatment versus 4 hour treatment: made no significant difference in cell growth inhibition
[5]
  Cell growth inhibition, full time treatment versus 4 hour treatment: made no significant difference in cell growth inhibition
[6]
  Cell growth inhibition, full time treatment versus 4 hour treatment: full time treatment with compound XIII caused much higher cell growth inhibition than 4 hour treatment
[7]
  Cell growth inhibition, full time treatment versus 4 hour treatment: full time treatment with compound XIII caused much higher cell growth inhibition than 4 hour treatment
